Assay results reported in patent US20260347347A1, “2-AZA-AND 2-OXABICYCLO[2.1.1]HEXANE DERIVATIVES AS FACTOR XIIA ENZYME INHIBITORS” (KALVISTA PHARMACEUTICALS LIMITED, priority 2022, published 2026).

biological target: T1, Human Factor XIIa (Homo sapiens, UniProt P00748); experiment: Determination of FXIIa inhibition (in vitro IC50 assay, fluorogenic substrate H-DPro-Phe-Arg-AFC); format: biochemical; details: human Factor XIIa; fluorogenic substrate H-DPro-Phe-Arg-AFC at Km concentration; 5 min, 25 °C; class symbols H1/H2 for % inhibition at top concentration
T1 construct: purchased Enzyme Research Laboratories
T1 sequence (P00748 373-615 limits assumed): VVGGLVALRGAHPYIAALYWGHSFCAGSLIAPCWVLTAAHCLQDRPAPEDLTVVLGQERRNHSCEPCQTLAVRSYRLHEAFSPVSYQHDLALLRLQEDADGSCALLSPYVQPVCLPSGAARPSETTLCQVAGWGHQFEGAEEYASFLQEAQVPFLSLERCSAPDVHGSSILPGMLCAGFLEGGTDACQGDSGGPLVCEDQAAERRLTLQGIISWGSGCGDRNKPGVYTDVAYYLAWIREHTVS
T1 sequence (P00748 20-372 partner limits assumed): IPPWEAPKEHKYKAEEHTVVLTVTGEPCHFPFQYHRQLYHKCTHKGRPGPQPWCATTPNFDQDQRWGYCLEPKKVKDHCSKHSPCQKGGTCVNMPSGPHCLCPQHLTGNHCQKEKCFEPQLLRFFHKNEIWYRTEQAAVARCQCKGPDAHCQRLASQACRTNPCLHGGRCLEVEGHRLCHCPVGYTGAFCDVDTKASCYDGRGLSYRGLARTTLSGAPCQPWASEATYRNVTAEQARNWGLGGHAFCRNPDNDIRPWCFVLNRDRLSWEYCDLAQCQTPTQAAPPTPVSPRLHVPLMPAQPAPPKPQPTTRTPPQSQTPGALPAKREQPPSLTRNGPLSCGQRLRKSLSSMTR
Experimental: In vitro inhibition of Factor XIIa was determined using an IC50 assay based on standard literature methods (see e.g Baeriswyl et al., ACS Chem. Biol., 2015, 10 (8) 1861; Bouckaert et al., European Journal of Medicinal Chemistry 110 (2016) 181). Human Factor XIIa (Enzyme Research Laboratories) was incubated at 25 °C with the fluorogenic substrate H-DPro-Phe-Arg-AFC (Peptide Protein Science) and various concentrations of the test compound. Protease activity was measured by monitoring the accumulation of liberated fluorescence from the substrate over 5 min at 25 °C. The linear rate of fluorescence increase per minute was expressed as percentage (%) activity. The Km for the cleavage of the substrate by FXIIa was determined by standard transformation of the Michaelis-Menten equation. The compound inhibitor assays were performed at substrate Km concentration. IC50 values were calculated as the concentration of inhibitor giving 50% inhibition (IC50) of the uninhibited enzyme activity (100%).

Q: How did the “Human FXIIa inhibition (compounds that did not achieve 50% inhibition)” value turn out when `Cc1cc(OCC23CN(C(=O)NC4(c5ccccc5)CC4)C(CNc4cccnc4)(C2)C3)cc(=O)n1C` [Example 55, 4-(((1,6-dimethyl-2-oxo-1,2-dihydropyridin-4-yl)oxy)methyl)-N-(1-phenylcyclopropyl)-1-((pyridin-3-ylamino)methyl)-2-azabicyclo[2.1.1]hexane-2-carboxamide] was run?
A: H2 (>20% inhibition @ 100 μM)

same assay, conditions: human Factor XIIa; fluorogenic substrate H-DPro-Phe-Arg-AFC at Km concentration; 5 min, 25 °C; class symbols; read-out: Human FXIIa IC50

Q: How did the IC50 turn out when `Cc1cc(OCC23CN(C(=O)N4CCC(c5ccccc5)CC4)C(CNc4cccc5c(N)nccc45)(C2)C3)cc(=O)n1C` [Example 70, 4-((1-(((1-aminoisoquinolin-5-yl)amino)methyl)-2-(4-phenylpiperidine-1-carbonyl)-2-azabicyclo[2.1.1]hexan-4-yl)methoxy)-1,6-dimethylpyridin-2(1H)-one] was run?
A: 10 to 100 nM

Q: How did the IC50 turn out when `Cn1ccc(CCC(=O)N2CC3(COc4ccn(C)c(=O)c4)CC2(CNc2cccc4c(N)nccc24)C3)cc1=O` [Example 19, 4-((1-(((1-aminoisoquinolin-5-yl)amino)methyl)-2-(3-(1-methyl-2-oxo-1,2-dihydropyridin-4-yl)propanoyl)-2-azabicyclo[2.1.1]hexan-4-yl)methoxy)-1-methylpyridin-2(1H)-one] was run?
A: 10 to 100 nM

Q: How did the IC50 turn out when `Cc1cc(OCC23CN(C(=O)Nc4ccc5c(c4)CCCO5)C(CN(C)c4cccc5c(N)nccc45)(C2)C3)cc(=O)n1C` [Example 104, 1-(((1-aminoisoquinolin-5-yl)(methyl)amino)methyl)-N-(chroman-6-yl)-4-(((1,6-dimethyl-2-oxo-1,2-dihydropyridin-4-yl)oxy)methyl)-2-azabicyclo[2.1.1]hexane-2-carboxamide] was run?
A: 10 to 100 nM

Q: With `Cn1ccc(OCC23CN(C(=O)NCCC4CCC4)C(CNc4cccc5c(N)nccc45)(C2)C3)cc1=O` [Example 81, 1-(((1-aminoisoquinolin-5-yl)amino)methyl)-N-(2-cyclobutylethyl)-4-(((1-methyl-2-oxo-1,2-dihydropyridin-4-yl)oxy)methyl)-2-azabicyclo[2.1.1]hexane-2-carboxamide] as the compound, how does the IC50 read?
A: 10 to 100 nM

Q: For `Cc1cc(OCC23CN(C(=O)CC45CC(C4)C5)C(CNc4cccc5c(N)nccc45)(C2)C3)cc(=O)n1C` [Example 26, 4-((1-(((1-aminoisoquinolin-5-yl)amino)methyl)-2-(2-(bicyclo[1.1.1]pentan-1-yl)acetyl)-2-azabicyclo[2.1.1]hexan-4-yl)methoxy)-1,6-dimethylpyridin-2(1H)-one], which IC50 is on record?
A: 10 to 100 nM

Q: How did the IC50 turn out when `Cc1cc(OCC23CN(C(=O)Nc4ccc5c(c4)OC(F)(F)O5)C(CNc4cccc5c(N)nccc45)(C2)C3)cc(=O)n1C` [Example 92, 1-(((1-aminoisoquinolin-5-yl)amino)methyl)-N-(2,2-difluorobenzo[d][1,3]dioxol-5-yl)-4-(((1,6-dimethyl-2-oxo-1,2-dihydropyridin-4-yl)oxy)methyl)-2-azabicyclo[2.1.1]hexane-2-carboxamide] was run?
A: 10 to 100 nM

Q: Which IC50 does the source give for `COCCOCCNC(=O)N1CC2(COc3ccn(C)c(=O)c3)CC1(CNc1cccc3c(N)nccc13)C2` [Example 73, 1-(((1-aminoisoquinolin-5-yl)amino)methyl)-N-(2-(2-methoxyethoxy)ethyl)-4-(((1-methyl-2-oxo-1,2-dihydropyridin-4-yl)oxy)methyl)-2-azabicyclo[2.1.1]hexane-2-carboxamide] here?
A: 10 to 100 nM

Q: `Cc1cc(OCC23CN(C(=O)N4CC[C@H](c5ccccc5)C4)C(CNc4cccc5c(N)nccc45)(C2)C3)cc(=O)n1C` [Example 49, (R)-4-((1-(((1-aminoisoquinolin-5-yl)amino)methyl)-2-(3-phenylpyrrolidine-1-carbonyl)-2-azabicyclo[2.1.1]hexan-4-yl)methoxy)-1,6-dimethylpyridin-2(1H)-one] was tested. Which IC50 did it give?
A: 10 to 100 nM

Q: How did the IC50 turn out when `Cc1cc(OCC23CN(C(=O)NC4(c5ccccc5)CC4)C(CNc4cccnc4O)(C2)C3)cc(=O)n1C` [Example 71, 4-(((1,6-Dimethyl-2-oxo-1,2-dihydropyridin-4-yl)oxy)methyl)-1-(((2-hydroxypyridin-3-yl)amino)methyl)-N-(1-phenylcyclopropyl)-2-azabicyclo[2.1.1]hexane-2-carboxamide] was run?
A: 40000 to 100000 nM

Q: For `C[C@H](c1ccccc1)N(C)C(=O)N1CC2(COc3ccn(C)c(=O)c3)CC1(CNc1cccc3c(N)nccc13)C2` [Example 43, (R)-1-(((1-aminoisoquinolin-5-yl)amino)methyl)-N-methyl-4-(((1-methyl-2-oxo-1,2-dihydropyridin-4-yl)oxy)methyl)-N-(1-phenylethyl)-2-azabicyclo[2.1.1]hexane-2-carboxamide], which IC50 is on record?
A: 1 to 10 nM

Q: For `Cn1ccc(OCC23CN(C(=O)N4CCOCC4)C(CNc4cccc5c(N)nccc45)(C2)C3)cc1=O` [Example 31, 4-((1-(((1-aminoisoquinolin-5-yl)amino)methyl)-2-(morpholine-4-carbonyl)-2-azabicyclo[2.1.1]hexan-4-yl)methoxy)-1-methylpyridin-2(1H)-one], which IC50 is on record?
A: 10 to 100 nM

Q: With `Cn1ccc(OCC23CN(C(=O)Cc4ccc5c(c4)CCO5)C(CNc4cccc5c(N)nccc45)(C2)C3)cc1=O` [Example 3, 4-((1-(((1-aminoisoquinolin-5-yl)amino)methyl)-2-(2-(2,3-dihydrobenzofuran-5-yl)acetyl)-2-azabicyclo[2.1.1]hexan-4-yl)methoxy)-1-methylpyridin-2(1H)-one] as the compound, how does the IC50 read?
A: 1 to 10 nM

Q: `Cc1cc(OCC23CN(C(=O)N4CCC5(CCOCC5)C4)C(CNc4cccc5c(N)nccc45)(C2)C3)cc(=O)n1C` [Example 83, 4-((1-(((1-aminoisoquinolin-5-yl)amino)methyl)-2-(8-oxa-2-azaspiro[4.5]decane-2-carbonyl)-2-azabicyclo[2.1.1]hexan-4-yl)methoxy)-1,6-dimethylpyridin-2(1H)-one] was tested. Which IC50 did it give?
A: 10 to 100 nM

Q: `Cc1cc(OCC23CN(c4ccc(C5CC5)nc4)C(CNc4cccc5c(N)nccc45)(C2)C3)cc(=O)n1C` [Example 94, 4-((1-(((1-aminoisoquinolin-5-yl)amino)methyl)-2-(6-cyclopropylpyridin-3-yl)-2-azabicyclo[2.1.1]hexan-4-yl)methoxy)-1,6-dimethylpyridin-2(1H)-one] was tested. Which IC50 did it give?
A: 10 to 100 nM

Q: `CC(=O)N1CCC(CC(=O)N2CC3(COc4ccn(C)c(=O)c4)CC2(CNc2cccc4c(N)nccc24)C3)CC1` [Example 16, 4-((2-(2-(1-acetylpiperidin-4-yl)acetyl)-1-(((1-aminoisoquinolin-5-yl)amino)methyl)-2-azabicyclo[2.1.1]hexan-4-yl)methoxy)-1-methylpyridin-2(1H)-one] was tested. Which IC50 did it give?
A: 10 to 100 nM

Q: For `Cn1ccc(OCC23CN(C(=O)N4CCCCC4)C(CNc4cccc5c(N)nccc45)(C2)C3)cc1=O` [Example 54, 4-((1-(((1-aminoisoquinolin-5-yl)amino)methyl)-2-(piperidine-1-carbonyl)-2-azabicyclo[2.1.1]hexan-4-yl)methoxy)-1-methylpyridin-2(1H)-one], which IC50 is on record?
A: 10 to 100 nM

Q: With `Cc1cc(OCC23CN(C(=O)N4CCC5(CCCC5)C4)C(CNc4cccc5c(N)nccc45)(C2)C3)cc(=O)n1C` [Example 85, 4-((1-(((1-aminoisoquinolin-5-yl)amino)methyl)-2-(2-azaspiro[4.4]nonane-2-carbonyl)-2-azabicyclo[2.1.1]hexan-4-yl)methoxy)-1,6-dimethylpyridin-2(1H)-one] as the compound, how does the IC50 read?
A: 10 to 100 nM

Q: Which IC50 does the source give for `Cn1ccc(OCC23CN(C(=O)C4(Oc5ccccc5)CC4)C(CNc4cccc5c(N)nccc45)(C2)C3)cc1=O` [Example 6, 4-((1-(((1-aminoisoquinolin-5-yl)amino)methyl)-2-(1-phenoxycyclopropane-1-carbonyl)-2-azabicyclo[2.1.1]hexan-4-yl)methoxy)-1-methylpyridin-2(1H)-one] here?
A: 100 to 300 nM

Q: Which IC50 does the source give for `Cc1cc(OCC23CN(C(=O)N(C)[C@@H]4CCOC4)C(CNc4cccc5c(N)nccc45)(C2)C3)cc(=O)n1C` [Example 40, (R)-1-(((1-aminoisoquinolin-5-yl)amino)methyl)-4-(((1,6-dimethyl-2-oxo-1,2-dihydropyridin-4-yl)oxy)methyl)-N-methyl-N-(tetrahydrofuran-3-yl)-2-azabicyclo [2.1.1]hexane-2-carboxamide] here?
A: 10 to 100 nM

Q: Which IC50 does the source give for `Cc1cc(OCC23CN(C(=O)Nc4ccc5c(c4)CCC5)C(CNc4cccc5c(N)nccc45)(C2)C3)cc(=O)n1C` [Example 65, 1-(((1-Aminoisoquinolin-5-yl)amino)methyl)-N-(2,3-dihydro-1H-inden-5-yl)-4-(((1,6-dimethyl-2-oxo-1,2-dihydropyridin-4-yl)oxy)methyl)-2-azabicyclo[2.1.1]hexane-2-carboxamide] here?
A: 1 to 10 nM
